# Laboratory results from patent publication US11680062B2, “3,4-methylenedioxyphenylimidazolylethanonexime ether derivative, preparation method and use thereof, and drug for the treatment of Alzheimer's disease” (NORTHWEST A&F UNIVERSITY, priority 2021, dated 2023).
# Like-named read-outs stand apart in the source and are kept apart here.
# Legend:
# BV-2 microglia [1] = conditions: mouse
# [2] = test system: NO production in lipopolysaccharide-induced BV-2 microglia; assay: Inhibition of NO production in lipopolysaccharide-induced BV-2 microglia; format: cell-based; conditions: Mus musculus
# 5×FAD transgenic mice [3] = assay: Marble burying test (anxiety behavior); format: in vivo; conditions: 5×FAD mice, high dose 30 mg/kg/day intraperitoneal, 4 weeks
# Procedure: (§1) The AD model mice used are 5×FAD transgenic mice, purchased from the Jackson Laboratory (JAX), USA. The transgenic mice have Swedish (K670N/M671L), Florida (I716V) and London (V717I) mutations in amyloid precursor protein (APP), and M146L and L286V mutations in PSEN1.
# (§2) All mice were fed and watered ad libitum at 22±2° C. with a humidity of 50±10% and a 12 h light/dark cycle until 6 months old, then the experiment was started. All operations were in accordance with the guidelines of the National Health Administration and the guidelines for the use of laboratory animals. […]
# Each mouse was placed in a cage (28×18×12 cm) containing 20 clean marbles (1.5 cm in diameter), evenly distributed on the surface of clean wood chips (4 cm in depth). After 30 min, each mouse was removed from the cage and the number of marbles buried at least two-thirds was counted.
# 5×FAD transgenic mice [4] = assay: Barnes maze test (learning and memory ability); format: in vivo; conditions: 5×FAD mice, 4 weeks
# Procedure: as §1, §2
# The Barnes maze test is widely used to assess spatial learning and memory abilities. […] When the cylinder was removed, light was given to allow the mice to explore the platform and find the escape box within 180 s, the time when the mice entered the escape box was recorded by a camera-based EthoVision system (Noldus) and recorded as the escape latency. […] The successful escape latency of mice was recorded and analyzed.
# 5×FAD transgenic mice [5] = assay: Y maze test (working memory ability); format: in vivo; conditions: 5×FAD mice, 4 weeks
# Procedure: as §1, §2
# The Y maze test is a commonly used test method to assess working memory ability. […] The mice were placed in the center of the Y maze to explore the 3 arms freely for 5 min, all movements were recorded by a camera, and the spontaneous alternation ratio was calculated according to the situation of entering onto each arm.
# 5×FAD transgenic mice [6] = assay: Elevated plus maze test (anxiety behavior); format: in vivo; conditions: 5×FAD mice, 4 weeks
# Procedure: as §1, §2
# The elevated plus maze is a recognized behavior test used for anxiety behavior assessment. […] The times of entries onto the open arm and the total times were recorded, and the anxiety behavior of the animal was evaluated by the proportion of entries onto the open arm.
# BV-2 microglia [7] = assay: Cell viability corresponding to the NO production test
# [8] = read-out: EC50 (inhibitory effect on the NO production)
# [9] = high dose 30 mg/kg/day intraperitoneal
# [10] = low dose 15 mg/kg/day intraperitoneal
# [11] = read-out: EC50 (inhibition of NO production)
Structure (SMILES),melting point,"EC50 [2, 8]",cell viability (BV-2 microglia [1]),also measured
FC(F)(F)c1ccccc1CO/N=C(\Cn1ccnc1)c1ccc2c(c1)OCO2 [I-8],156.3 to 157.5 °C,2.53 ± 0.47 µM,95.4%,–
N#Cc1ccc(CO/N=C(\Cn2ccnc2)c2ccc3c(c2)OCO3)cc1 [I-9],–,4.24 ± 1.02 µM,91.6%,–
FC(F)(F)c1ccc(CO/N=C(\Cn2ccnc2)c2ccc3c(c2)OCO3)cc1 [I-7],121.8 to 122.7 °C,2.37 ± 0.17 µM,92.8%,–
Clc1ccc(CO/N=C(\Cn2ccnc2)c2ccc(Cl)cc2Cl)c(Cl)c1 [oxiconazole],–,–,–,cell viability (BV-2 microglia [7]): 96.2%
"O=c1c(O)c(-c2ccc(O)c(O)c2)oc2cc(O)cc(O)c12 [quercetin, reference compound]",–,9.56 ± 1.62 µM,–,"cell viability (BV-2 microglia [7]): 94.3%; EC50 [2, 11]: 9.56 µM"

# Now from value to compound, other results behind:
melting point,"EC50 [2, 8]",Structure (SMILES),cell viability (BV-2 microglia [1]),also measured
154.3 to 154.9 °C,2.76 ± 0.34 µM,CC(C)=CCO/N=C(\Cn1ccnc1)c1ccc2c(c1)OCO2 [I-5],93.3%,–
–,2.07 ± 0.56 µM,C#CCO/N=C(\Cn1ccnc1)c1ccc2c(c1)OCO2 [I-1],92.5%,"number of marbles buried (5×FAD transgenic mice [3]): significantly reduced; successful escape latency vs 5×FAD-Vehicle group (5×FAD transgenic mice [4]; high dose 30 mg/kg/day intraperitoneal, day 3 and day 4): significantly reduced; successful escape latency vs 5×FAD-Vehicle group (5×FAD transgenic mice [4]; low dose 15 mg/kg/day intraperitoneal, day 4): significantly reduced; spontaneous alternation ratio (5×FAD transgenic mice [5]; [9]): significantly increased; spontaneous alternation ratio (5×FAD transgenic mice [5]; [10]): significantly increased; proportion of entries onto the open arm (5×FAD transgenic mice [6]; [9]): significantly improved; proportion of entries onto the open arm (5×FAD transgenic mice [6]; [10]): significantly improved"
–,> 20 µM,C(=C\c1ccccc1)/CO/N=C(\Cn1ccnc1)c1ccc2c(c1)OCO2 [I-10],96.3%,"EC50 [2, 11]: > 20 µM"
186.4 to 187.9 °C,4.43 ± 0.43 µM,c1ccc(CO/N=C(\Cn2ccnc2)c2ccc3c(c2)OCO3)cc1 [I-6],97.8%,–
–,3.42 ± 0.64 µM,C=CCO/N=C(\Cn1ccnc1)c1ccc2c(c1)OCO2 [I-3],97.8%,–
